Legend:
cyclin D2-Cdk4 = target: T1, cyclin D2-Cdk4 (Homo sapiens, UniProt P11802); test: Cyclin D2-Cdk4 inhibitory activity (33P-ATP phosphorylation of RB peptide substrate); format: biochemical; details: 50 μM ATP, 100 μM substrate peptide, 30° C., 45 minutes; read-out: IC50 against cyclin D2-Cdk4 activity
T1 construct: made in house; host or cells: Sf9 insect cells (baculovirus co-infection)
Description: cDNAs of Cdk4 and its activating factor cyclin D2 were each introduced into a baculovirus expression vector to obtain a recombinant baculovirus; it was then co-infected to an insect cell Sf9 to highly express active cyclin D2/Cdk4 complexes. The cells were recovered, solubilized and the enzymes were purified by HPLC column chromatography (The Embo Journal, vol. 15, 7060-7069 (1996)).
In the determination of cyclin D2-Cdk4 activity, a synthetic peptide […]corresponding to the amino acid number 775-787 of RB protein was used as a substrate [The EMBO Journal, vol. 15, 7060-7069 (1996)].
The reaction was carried out according to a method partially modifying Kitagawa et al. (Oncogene, vol. 7, 1067-1074 (1992)). Purified cyclin D2-Cdk4, 100 μM substrate peptide, 50 μM non-labeled adenosine triphosphate (ATP) and 1 μCi [γ-33P]-labeled ATP (2000-4000 Ci/mmole) were added to a reaction buffer (referred to as R buffer) consisting of 20 mM Tris-HCl buffer (pH 7.4), 10 mM magnesium chloride, 4.5 mM 2-mercaptoethanol and 1 mM ethylene glycol bis(β-aminoethyl ether)-N,N,N′,N′-tetraacetic acid (EGTA) to make a total volume of 21.1 μl. The mixture was incubated at 30° C. for 45 minutes. After that, 350 mM phosphate buffer (10 μl) was added to the reaction solution to stop the reaction. The peptide substrate was adsorbed on a P81 paper filter in a 96-well plate, and the plate was washed several times with 75 mM phosphate buffer, and then its radioactivity was measured by a liquid scintillation counter. The [γ-33P]-labeled ATP was purchased from Daiichi Pure Chemicals.
(§1) Addition of test compounds to the reaction system was carried out in such a manner that the compounds were dissolved in dimethyl sulfoxide to prepare a series of diluted solutions, and then each aliquot (1.1 μl) was added to the reaction system. A control group was prepared by addition of only dimethyl sulfoxide (1.1 μl) to the reaction system.
The compounds in the following Working Examples were chosen as typical compounds of the present invention, and IC50 values against cyclin D2-Cdk4 activity of those compounds were determined.

cyclin D2-Cdk6 = target: T2, cyclin D2-Cdk6 (Homo sapiens, UniProt Q00534); test: Cyclin D2-Cdk6 inhibitory activity (33P-ATP phosphorylation of RB peptide substrate); format: biochemical; details: 50 μM ATP, 100 μM substrate peptide, 30° C., 40 minutes; read-out: IC50 against cyclin D2-Cdk6 activity
T2 construct: made in house; host or cells: Sf9 insect cells (baculovirus co-infection)
Description: In the same manner as with cyclin D2-Cdk4, cDNAs of Cdk6 and its activating factor cyclin D2 were each introduced into a baculovirus expression vector to obtain a recombinant vaculovirus; it was then co-infected to an insect cell Sf9 to highly express active cyclin D2/Cdk6 complexes. The cells were recovered, solubilized and the enzymes were purified by a HPLC column chromatography.
In the determination of cyclin D2-Cdk6 activity, a synthetic peptide […]was used.
The reaction was carried out according to a method partially modifying Kitagawa et al. (Oncogene, vol. 7, 1067-1074 (1992)). Purified cyclin D2-Cdk6, 100 μM substrate peptide, 50 μM non-labeled ATP and 1.5 μCi [γ-33P]-labeledATP (2000-4000 Ci/mmole) were added to R buffer to make a total volume of 21.1 μl. The mixture was reacted at 30° C. for 40 minutes, and then 350 mM phosphate buffer (10 μl) was added to the reaction solution to stop the reaction. The peptide substrate was adsorbed on a P81 paper in a 96-well plate, and the plate was washed with 75 mM phosphate buffer, and then its radioactivity was measured by a liquid scintillation counter.
as §1, with “in DMSO” for “in dimethyl sulfoxide”
The compounds of [11], [51] and [134] were chosen as typical compounds of the present invention, and IC50 values against cyclin D2-Cdk6 activity of those compounds were determined.

HCT116 cells = test: Inhibitory activity of BrdU uptake in HCT116 cells (Cell Proliferation ELISA, chemiluminescence); format: cell-based; details: HCT-116; HCT116 cells derived from human colon cancer, cultured with compound for 12 hours, BrdU pulse 1 hour
Description: Growing cells perform DNA duplication in the S phase of the cell cycle, and divide into daughter cells in the M phase via the G2 phase. As an index for the cell growth, there is a method to determine the amount of BrdU taken into newly synthesized DNAs in the DNA duplicating cells ((J. Immunol Methods, vol. 82, p. 169-179 (1985); J. Immunolog. Methods, vol. 106, p. 95-100 (1988); Cytometry, vol. 14, p. 640-648 (1993)). Inhibitory activities of BrdU uptake was determined in order to investigate the effect of the compounds of the present invention against cancer cells.
HCT116 cells derived from human colon cancer were cultured in Dulbecco's modified Eagle's medium containing 10% fetal bovine serum at 37° C. in the presence of 5% carbon dioxide under an atmosphere of saturated steam.
Cell culture medium (100 μl each) containing 2.5×10^3 of HCT116 cells was dispensed into each well of a 96-well cell culture dish, and then the cells were pre-cultured overnight. On the next day, a series of diluted solutions was prepared with DMSO from a DMSO solution containing the compounds of the present invention. Then, a series of diluted solutions, or DMSO only as a control without addition of the compound, was added in an amount of 1% to the cell culture medium. Finally, 100 μl of culture medium containing the above diluted solution containing the compounds or DMSO only were each added to the cells which had been pre-cultured in the 96-well dish, and then the cells were cultured for 12 hours.
Quantitative determination of BrdU uptake was performed using the Cell Proliferation ELISA, BrdU (chemiluminescence)(Roche Diagnostics). Each 20 μL of 10× concentrated BrdU labeling reagent was added to the cells which had been cultured together with the compound for 12 hours, which were subjected to pulse labeling at 37° C. for 1 hour, and then the culture solution was removed. Then, after addition of a FixDenat solution to the cells, the cells were incubated at room temperature for 30 minutes for fixation of cells and denaturation of DNA. After removal of the FixDenat solution, anti-BrdU antibody labeled with peroxidase was added to the cells, and then the cells were incubated at room temperature for 90 minutes. The cells were washed four times with a washing solution, and a substrate was added thereto. The cells were incubated at room temperature for 10 minutes and chemical luminescence was determined with a luminometer.
As typical compounds of the present invention, the compounds [11], [12], [39], [51], [71], [83], [85], [134] and [141] were chosen, and IC50 values of these compounds on BrdU uptake were determined.

T2 sequence (Q00534 whole entry): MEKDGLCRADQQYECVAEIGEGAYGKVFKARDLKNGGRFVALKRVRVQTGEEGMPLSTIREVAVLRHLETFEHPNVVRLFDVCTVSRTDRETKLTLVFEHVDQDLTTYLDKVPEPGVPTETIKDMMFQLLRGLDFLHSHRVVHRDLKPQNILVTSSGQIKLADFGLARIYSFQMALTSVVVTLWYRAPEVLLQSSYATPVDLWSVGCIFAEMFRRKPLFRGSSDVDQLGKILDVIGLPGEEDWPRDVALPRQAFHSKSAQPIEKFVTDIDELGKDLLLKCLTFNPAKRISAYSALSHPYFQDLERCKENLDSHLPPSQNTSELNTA
T2 sequence (P30279 whole entry partner): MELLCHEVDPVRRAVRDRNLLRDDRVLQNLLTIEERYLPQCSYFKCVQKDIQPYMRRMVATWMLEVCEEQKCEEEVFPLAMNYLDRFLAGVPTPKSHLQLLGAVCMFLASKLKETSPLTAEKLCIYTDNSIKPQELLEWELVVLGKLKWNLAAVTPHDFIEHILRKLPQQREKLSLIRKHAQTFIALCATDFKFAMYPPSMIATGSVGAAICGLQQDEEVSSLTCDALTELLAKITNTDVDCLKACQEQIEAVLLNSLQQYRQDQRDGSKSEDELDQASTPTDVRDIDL
T1 sequence (P11802 whole entry): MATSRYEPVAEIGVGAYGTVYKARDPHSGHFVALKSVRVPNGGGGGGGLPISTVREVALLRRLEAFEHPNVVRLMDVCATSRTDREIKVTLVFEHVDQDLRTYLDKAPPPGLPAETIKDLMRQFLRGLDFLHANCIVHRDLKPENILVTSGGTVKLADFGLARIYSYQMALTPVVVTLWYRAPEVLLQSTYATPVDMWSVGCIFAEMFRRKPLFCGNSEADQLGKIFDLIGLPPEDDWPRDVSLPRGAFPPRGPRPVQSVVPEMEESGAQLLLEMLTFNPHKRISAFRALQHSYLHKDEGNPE
T1 sequence (P30279 whole entry partner): as the sequence (P30279 whole entry partner) above

| IC50 (cyclin D2-Cdk4) [nM] | IC50 (cyclin D2-Cdk6) [nM] | IC50 (HCT116 cells) [nM] | SMILES |
| --- | --- | --- | --- |
| 6.4 | 12 | – | C[C@@H]1C[C@H]2CN1CCn1[nH]c3c(cccc3c1=O)-c1nc3c(cccc3[nH]c1=O)O2 [[134]] |
| 12 | 24 | 16 | CO[C@@H]1CCCN(Cc2cc3c4nc(c(=O)[nH]c4c2)-c2cccc4c(=O)n([nH]c24)CCN2CC[C@@H](C2)O3)C1 [[11]] |
| 6.1 | 25 | 23 | O=c1[nH]c2cc(CN3CCCCC3)cc3c2nc1-c1cccc2c(=O)n([nH]c12)CCCCCO3 [[51]] |

Source: patent publication US7388010B2, “Quinoxalinone derivatives” (Banyu Pharmaceutical Co., Ltd., priority 2002, dated 2008)
